Measured values reported in patent US5039797A, “2'-O-(4-benzoyl)benzoyl nucleoside cyclic monophosphate” (Yale University, priority 1989, dated 1991).
pIC50, pKi: −log10 of the molar value. Where two headings read alike, the source gives them in different places.

How the values were obtained:
[1] = biological target: T1, Rod Light-Activated PDEase (Bos taurus, UniProt P11541+P23439)
T1 sequence (P11541 1-859): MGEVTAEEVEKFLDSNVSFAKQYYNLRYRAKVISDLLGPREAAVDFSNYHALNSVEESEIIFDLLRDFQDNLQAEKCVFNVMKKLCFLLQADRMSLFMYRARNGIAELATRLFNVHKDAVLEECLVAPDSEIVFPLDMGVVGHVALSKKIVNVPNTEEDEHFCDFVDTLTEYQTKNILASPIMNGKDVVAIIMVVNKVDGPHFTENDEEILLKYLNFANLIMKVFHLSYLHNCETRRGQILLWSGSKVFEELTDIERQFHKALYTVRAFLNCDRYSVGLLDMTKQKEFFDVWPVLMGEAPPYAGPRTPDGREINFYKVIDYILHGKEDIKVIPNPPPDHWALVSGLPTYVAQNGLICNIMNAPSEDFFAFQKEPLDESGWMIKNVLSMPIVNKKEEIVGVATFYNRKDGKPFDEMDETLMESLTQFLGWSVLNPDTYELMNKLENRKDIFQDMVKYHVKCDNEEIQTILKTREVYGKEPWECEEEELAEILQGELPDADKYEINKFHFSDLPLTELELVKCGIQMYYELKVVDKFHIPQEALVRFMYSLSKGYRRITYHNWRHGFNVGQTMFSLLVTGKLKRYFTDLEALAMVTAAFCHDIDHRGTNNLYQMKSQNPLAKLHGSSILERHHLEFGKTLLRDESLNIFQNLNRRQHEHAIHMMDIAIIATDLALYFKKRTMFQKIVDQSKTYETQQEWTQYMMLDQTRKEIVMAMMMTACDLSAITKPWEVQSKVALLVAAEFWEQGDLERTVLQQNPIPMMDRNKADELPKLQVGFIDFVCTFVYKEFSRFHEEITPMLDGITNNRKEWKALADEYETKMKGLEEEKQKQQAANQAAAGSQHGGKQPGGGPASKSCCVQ
T1 sequence (P23439 1-853): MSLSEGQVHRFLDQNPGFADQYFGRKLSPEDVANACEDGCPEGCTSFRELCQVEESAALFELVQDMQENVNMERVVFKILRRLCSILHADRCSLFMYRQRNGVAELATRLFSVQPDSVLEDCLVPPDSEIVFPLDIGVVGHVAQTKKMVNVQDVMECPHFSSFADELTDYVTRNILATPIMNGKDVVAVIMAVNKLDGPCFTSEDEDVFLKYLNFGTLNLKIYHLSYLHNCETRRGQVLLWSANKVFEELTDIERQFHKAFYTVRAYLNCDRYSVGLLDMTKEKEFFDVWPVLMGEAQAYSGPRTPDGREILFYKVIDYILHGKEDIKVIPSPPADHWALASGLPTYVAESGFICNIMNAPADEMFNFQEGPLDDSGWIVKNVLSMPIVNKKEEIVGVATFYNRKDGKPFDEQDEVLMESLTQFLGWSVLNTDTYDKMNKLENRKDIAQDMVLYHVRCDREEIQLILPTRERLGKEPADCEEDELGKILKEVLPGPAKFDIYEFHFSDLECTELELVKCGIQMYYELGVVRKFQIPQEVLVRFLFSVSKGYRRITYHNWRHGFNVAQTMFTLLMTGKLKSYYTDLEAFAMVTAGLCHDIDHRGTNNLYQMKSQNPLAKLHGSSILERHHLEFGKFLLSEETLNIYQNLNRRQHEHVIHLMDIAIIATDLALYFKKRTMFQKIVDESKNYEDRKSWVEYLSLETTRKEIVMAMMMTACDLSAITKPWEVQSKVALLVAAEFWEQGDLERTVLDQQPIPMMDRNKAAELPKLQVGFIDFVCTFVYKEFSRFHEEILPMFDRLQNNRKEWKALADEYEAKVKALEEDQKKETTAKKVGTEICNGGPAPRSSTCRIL

[2] = biological target: Type III cGMP phosphodiesterase; experiment: Lineweaver-Burke analysis of cGMP hydrolysis by toad photoreceptor rod outer segment membranes; format: biochemical
Procedure: FIG. 7 depicts a Lineweaver-Burke analysis of inhibitory effectiveness of 2'-0-(4-benzoyl)benzoyl guanosine 3',5'cyclic monophosphate versus 8-Br-cGMP. The data illustrated are cGMP hydrolysis velocities from toad photoreceptor rod outer segment membranes containing 20 nM Type III cGMP phosphodiesterase in the presence of 100 mM NaCl, 1 mM Tris-HCl, 1 MgCl2,20 μM p[NH]ppG (guanylylimididiphosphate), pH 7.4, and the indicated concentrations of substrate. Open squares indicate control velocities. […] Open circles and open triangles show the effect of 2 μM and 20uM 2'-0-(4-benzoyl)benzoyl guanosine 3',5'cyclic monophosphate respectively (Ki =0.3 μM).

eye = experiment: Ocular tolerability in rabbits after topical administration; format: in vivo, rabbit
intraocular pressure = experiment: Intraocular pressure in normal rabbits after topical administration; format: in vivo, rabbit
From the text: Non-pigmented, normal (non-water-loaded) rabbits received topical administration to their eyes of 2'-0-(4)-benzoyl benzoyl guanosine 3',5'cyclic monophosphate as prepared according to Example 1.
The mean baseline IOP (intraocular pressure) for the rabbits was 17.5 mm Hg. It should be noted that the data presented in FIG. 1 and FIG. 2 are relative to time zero and normalized relative to the contralateral eye. The contralateral eye received a DMSO control lacking the inhibitor compound. It is believed that this is the most conservative way to represent the data.
Additionally, five rabbits were administered 2'-0-(4-benzoyl)benzoyl guanosine 3',5'cyclic monophosphate (and DMSO) in a sterile saline solution diluted 10- and 100-fold.
FIG. 1 depicts the results of increasing concentrations of 2'-0-(4-benzoyl)benzoyl guanosine 3',5' cyclic monophosphate on the intraocular pressure of normal rabbits. Pressures (±S.E.M) are relative to pressure at time zero and normalized with respect to that of the contralateral eye. Contralateral eyes received solutions containing (DMSO) vehicle without 2'-0-(4-benzoyl)benzoyl guanosine 3',5'cyclic monophosphate. […] Intraocular pressure was measured by applanation tonometry (using an Alcon Applanation Pneumotonograph) after topical application of proparacaine HCl […].

cGMP PDE = experiment: Inhibition of cGMP phosphodiesterase in rat bladder; format: biochemical; conditions: read-out: IC50, concentration required to cause 50% inhibition of the enzyme
Procedure: (§1) 2'-0-(4-benzoyl)benzoyl guanosine 3',5' cyclic monophosphate was assayed as an inhibitor of the cGMP and cAMP phoosphodiesterases in rat bladder. The inhibition of the two PDEases were assayed as per J. N. Wells, C. E. Baird, Y. J. Wu and J. G. Hardman, Biochem. Biophys. Acta, 384, 430, (1975). Expressed as IC50 's, the concentration required to cause 50% inhibition of the enzynme were as follows: […]

[3] = Storage stability in DMSO; format: physicochemical; conditions: stored at -20° C
From the text: No preservative need be added.

cAMP PDE = experiment: Inhibition of cAMP phosphodiesterase in rat bladder; format: biochemical; conditions: read-out: IC50, concentration required to cause 50% inhibition of the enzyme
Procedure: as §1

Solubility in solvents = format: physicochemical; conditions: dmso, organic solvent or mixture; in water, ethanol or methanol and DSMO; read-out: upper limit of solubility
Procedure: The inventive compound favors organic solvents; the upper limit of solubility in water, ethanol or methanol and DSMO is approximately 100 mM. Butanol is also a good solvent, but probably not a very good vehicle.

[4] = system: platelet phosphodiesterase; experiment: Inhibition of platelet phosphodiesterase activity (H3-cAMP hydrolysis); format: biochemical; conditions: 5 minutes at 30° C, platelet preparations
Procedure: The IC50 's for 2'-0-(4-benzoyl)benzoyl guanosine 3',5'cyclic monophosphate and 2'-0-(4-benzoyl)benzoyl cyclic adenosine monophosphate were 3 and 10 μM, repsectively. Enzyme activity was assayed by incubation of platelet preparations with H^3 -cAMP for 5 minutes at 30° C. Activity was quenched by boiling the assay tubes for 1 minute. Each sample was run in triplicate. Analysis of H^3 -cAMP was performed according to the procedure of W. J. Thompson, W. L. Terasaki, P. M. Epstein and S. J. Strada, "Assay of Cyclic Nucleotide Phosphodiesterase and Resolution of Multiple Molecular Forms of the Enzyme", Adv. in Cyclic Nucleotide Research, 10, 69-92 (1979).

[5] = footnote a: from Zimmerman et al 1985; read-out: Ki for Inhibition; cited from earlier work
[6] = 20 nM enzyme, 100 mM NaCl, 20 μM p[NH]ppG, pH 7.4, Ki calculated from slope/Km ratios, read-out: Ki
[7] = footnote b: interpolated from Pannbacker et al 1972 and Chader et al 1974; read-out: Ki for Inhibition; cited from earlier work

Nc1nc(O)c2nc(Br)n([C@@H]3O[C@@H]4COP(=O)(O)O[C@H]4[C@H]3O)c2n1 [Example 8-Br-cGMP, 8-Br-3',5' cyclic guanosine monophosphate, reference compound]
pKi [1, 5]: 4.32 | pKi [2, 6]: 5.22

CC(C)Cn1c(=O)n(C)c(=O)c2[nH]cnc21 [Isobutylmethylxanthine]
pKi ([1]; read-out: Ki for Inhibition; footnote b: interpolated from Pannbacker et al 1972 and Chader et al 1974; cited from earlier work): ~4.00

Cn1c(=O)c2[nH]cnc2n(C)c1=O [Theophyline]
pKi [1, 7]: ~3.44

Nc1nc2c(ncn2[C@H]2C[C@@H]3OP(=O)(O)OC[C@H]3O2)c(=O)[nH]1 [2'-Deoxy-cGMP]
pKi [1, 5]: 4.12

Nc1nc2c(ncn2[C@@H]2O[C@@H]3COP(O)(=S)O[C@H]3[C@H]2O)c(=O)[nH]1 (some centres unmarked) [(Sp)-cGMP [S]]
pKi [1, 5]: 4.60

Nc1nc2c(ncn2[C@@H]2O[C@@H]3COP(=O)(O)O[C@H]3[C@H]2OC(=O)c2ccc(C(=O)c3ccccc3)cc2)c(=O)[nH]1 [2'-0-(4-benzoyl)benzoylguanosine 3',5'cyclic monophosphate]
conjunctival hyperemia (eye; compound (and DMSO) diluted ten-fold with saline solution): reduced | change in pupil diameter (eye; either eye, any concentration, topical): No significant change in pupil diameter | conjunctival hyperemia (eye; full concentration (in straight DMSO)): slight conjunctival hyperemia | lid erythema or ciliary injection (eye; topical): no lid erythema or ciliary injection were observed | effect on IOP (intraocular pressure; 10-fold diluted material (approximately 3 mM), compared with 35 mM in DMSO): about the same effect on IOP | effect on IOP (intraocular pressure; 100-fold diluted compound (approximately 0.3 mM)): essentially no effect | pKi [2, 6]: 6.52 | pKi ([2]; Table 1, rod light-activated PDEase, inventive compound, read-out: Ki for Inhibition): 6.52 | pIC50 (cGMP PDE): 6.30 | stability in solution [3]: does not degrade | pIC50 (cAMP PDE): 4.80 | solubility (Solubility in solvents): ~100 mM | pIC50 [4]: 5.52

Nc1nc2c(ncn2[C@@H]2O[C@@H]3COP(O)(=S)O[C@H]3[C@H]2O)c(=O)[nH]1 (some centres unmarked) [(Rp)-cGMP [S]]
pKi [1, 5]: 4.05

CCCC(=O)O[C@@H]1[C@@H]2OP(=O)(O)OC[C@H]2O[C@H]1n1cnc2c(=O)[nH]c(N)nc21 [O^2,-monobutyryl-cGMP]
pKi [1, 5]: 4.74

Nc1nc2c(ncn2[C@@H]2O[C@@H]3COP(=O)(O)O[C@H]3[C@H]2O)c(=O)[nH]1 [cGMP, 3',5'cyclic guanosine monophosphate]
Km ([1]; substrate cGMP; from Zimmerman et al 1985; read-out: Km (printed in column Ki for Inhibition); cited from earlier work): 0.04 mM

COc1ccc(Cc2nccc3cc(OC)c(OC)cc23)cc1OC [Papaverine]
pKi [1, 7]: ~4.30

CCCC(=O)Nc1nc2c(ncn2[C@@H]2O[C@@H]3COP(=O)(O)O[C@H]3[C@H]2OC(=O)CCC)c(=O)[nH]1 [N^2,O^2,-dibutyryl-cGMP]
pKi [1, 5]: 4.18

Nc1ncnc2c1ncn2[C@@H]1O[C@@H]2COP(=O)(O)O[C@H]2[C@H]1OC(=O)c1ccc(C(=O)c2ccccc2)cc1 [2'-0-(4-benzoyl) benzoyl-adenosine 3',5' cyclic monophosphate]
pIC50 [4]: 5.00

CCCC(=O)Nc1nc2c(ncn2[C@@H]2O[C@@H]3COP(=O)(O)O[C@H]3[C@H]2O)c(=O)[nH]1 [N^2 -monobutyryl-cGMP]
pKi [1, 5]: 3.59
